Data as given in US6949542B2, “Dihydro-benzo[b][1,4]diazepin-2-one derivatives” (Hoffman-La Roche Inc., priority 2002, dated 2005).

| Compound | melting point |
| --- | --- |
| Cc1cc(-c2cccc(C3=Nc4cc(C)c(Cl)cc4NC(=O)C3)c2)cc(CO)n1 [Example 401, 8-Chloro-4-[3-(2-hydroxymethyl-6-methyl-pyridin-4-yl)-phenyl]-7-methyl-1,3-dihydro-benzo[b][1,4]diazepin-2-one] | 202 °C |
| Cc1cc2c(cc1C)NC(=O)CC(c1cccc(-c3ccncc3)c1)=N2 [Example 69, 7,8-Dimethyl-4-(3-pyridin-4-yl-phenyl)-1,3-dihydro-benzo[b][1,4]diazepin-2-one] | 231 °C |
| Cc1cc(-c2cccc(C3=Nc4ccc(Cl)cc4NC(=O)C3)c2)ncn1 [Example 312, 8-Chloro-4-[3-(6-methyl-pyrimidin-4-yl)-phenyl]-1,3-dihydro-benzo[b][1,4]diazepin-2-one] | 199 to 200 °C |
| Cc1cc(C)c(-c2cccc(C3=Nc4cc(OCC(F)(F)F)c(C(F)(F)F)cc4NC(=O)C3)c2)cn1 [Example 253, 4-[3-(4,6-Dimethyl-pyridin-3-yl)-phenyl]-7-(2,2,2-trifluoro-ethoxy)-8-trifluoromethyl-1,3-dihydro-benzo[b][1,4]diazepin-2-one] | 176 to 180 °C |
| O=C1CC(c2cccc(-c3ccnc(CN4CCC4)c3)c2)=Nc2cc(OCC(F)(F)F)c(C(F)(F)F)cc2N1 [Example 381, 4-[3-(2-Azetidin-1-ylmethyl-pyridin-4-yl)-phenyl]-7-(2,2,2-trifluoro-ethoxy)-8-trifluoromethyl-1,3-dihydro-benzo[b][1,4]diazepin-2-one] | 190 °C |
| Cc1cc(-c2cccc(C3=Nc4cc(C)c(Cl)cc4NC(=O)C3)c2)nc(NCCO)n1 [Example 323, 8-Chloro-4-{3-[2-(2-hydroxy-ethylamino)-6-methyl-pyrimidin-4-yl]-phenyl}-7-methyl-1,3-dihydro-benzo[b][1,4]diazepin-2-one] | 197 to 199 °C |
| CC(C)N(C)c1cc2c(cc1C(F)(F)F)NC(=O)CC(c1cccc(-c3ccnc(CO)c3)c1)=N2 [Example 370, 4-[3-(2-Hydroxymethyl-pyridin-4-yl)-phenyl]-7-(isopropyl-methyl-amino)-8-trifluoromethyl-1,3-dihydro-benzo[b][1,4]diazepin-2-one] | 124 °C |
| Cc1cc2c(cc1Cl)NC(=O)CC(c1cccc(-c3ncccn3)c1)=N2 [Example 335, 8-Chloro-7-methyl-4-(3-pyrimidin-2-yl-phenyl)-1,3-dihydro-benzo[b][1,4]diazepin-2-one] | 223 to 227 °C |
| Cc1cc2c(cc1Cl)NC(=O)CC(c1cccc(-c3ccnc(C)c3C)c1)=N2 [Example 140, 8-Chloro-4-[3-(2,3-dimethyl-pyridin-4-yl)-phenyl]-7-methyl-1,3-dihydro-benzo[b][1,4]diazepin-2-one] | 224 °C |
| CNc1nc(C)cc(-c2cccc(C3=Nc4cc(C)c(Cl)cc4NC(=O)C3)c2)n1 [Example 319, 8-Chloro-7-methyl-4-[3-(6-methyl-2-methylamino-pyrimidin-4-yl)-phenyl]-1,3-dihydro-benzo[b][1,4]diazepin-2-one] | 235 to 237 °C |
| Cc1cc2c(cc1C(F)(F)F)NC(=O)CC(c1cccc(-c3ccccn3)c1)=N2 [Example 46, 7-Methyl-4-(3-pyridin-2-yl-phenyl)-8-trifluoromethyl-1,3-dihydro-benzo[b][1,4]diazepin-2-one] | 251 to 253 °C |
| CC(C)CN(C)Cc1cc(-c2cccc(C3=Nc4cc(OCC(F)(F)F)c(C(F)(F)F)cc4NC(=O)C3)c2)ccn1 [Example 397, 4-(3-{2-[(Isobutyl-methyl-amino)-methyl]-pyridin-4-yl}-phenyl)-7-(2,2,2-trifluoro-ethoxy)-8-trifluoromethyl-1,3-dihydro-benzo[b][1,4]diazepin-2-one] | 166 °C |
| Cc1cc2c(cc1Cl)NC(=O)CC(c1cccc(-c3ccc(C4CC4)nc3)c1)=N2 [Example 161, 8-Chloro-4-[3-(6-cyclopropyl-pyridin-3-yl)-phenyl]-7-methyl-1,3-dihydro-benzo[b][1,4]diazepin-2-one] | 198 to 199 °C |
| CCCOc1cc2c(cc1C(F)(F)F)NC(=O)CC(c1cccc(-c3cccnc3)c1)=N2 [Example 215, 7-Propoxy-4-(3-pyridin-3-yl-phenyl)-8-trifluoromethyl-1,3-dihydro-benzo[b][1,4]diazepin-2-one] | 219 to 221 °C |
| Cc1cc2c(cc1C(F)(F)F)NC(=O)CC(c1cccc(-c3cccnc3C3CC3)c1)=N2 [Example 221, 4-[3-(2-Cyclopropyl-pyridin-3-yl)-phenyl]-7-methyl-8-trifluoromethyl-1,3-dihydro-benzo[b][1,4]diazepin-2-one] | 173 to 175 °C |
| CCOc1cc2c(cc1C(F)(F)F)NC(=O)CC(c1cccc(-c3ccnc(CC)c3)c1)=N2 [Example 159, 4-[3-(2-Ethyl-pyridin-4-yl)-phenyl]-7-ethoxy-8-trifluoromethyl-1,3-dihydro-benzo[b][1,4]diazepin-2-one] | 244 °C |
| Cc1ncccc1-c1cccc(C2=Nc3ccc(C(F)(F)F)cc3NC(=O)C2)c1 [Example 17, 4-[3-(2-Methyl-pyridin-3-yl)-phenyl]-8-trifluoromethyl-1,3-dihydro-benzo[b][1,4]diazepin-2-one] | 219 to 220 °C |

| Compound | melting point |
| --- | --- |
| Cc1cc2c(cc1Cl)N=C(c1cccc(-c3cnccn3)c1)CC(=O)N2 [Example 103, 7-Chloro-8-methyl-4-(3-pyrazin-2-yl-phenyl)-1,3-dihydro-benzo[b][1,4]diazepin-2-one] | 218 °C |
| O=C1CC(c2cccc(-c3cnccn3)c2)=Nc2cc(Cl)c(Cl)cc2N1 [Example 88, 7,8-Dichloro-4-(3-pyrazin-2-yl-phenyl)-1,3-dihydro-benzo[b][1,4]diazepin-2-one] | 268 °C |
| Cc1cc(-c2cccc(C3=Nc4cc(C(F)(F)F)c(Cl)cc4NC(=O)C3)c2)cc(C)n1 [Example 128, 8-Chloro-4-[3-(2,6-dimethyl-pyridin-4-yl)-phenyl]-7-trifluoromethyl-1,3-dihydro benzo[b][1,4]diazepin-2-one] | 207 °C |
| CCOc1cc2c(cc1C(F)(F)F)NC(=O)CC(c1cccc(-c3cnc(C4CC4)cc3C)c1)=N2 [Example 247, 4-[3-(6-Cyclopropyl-4-methyl-pyridin-3-yl)-phenyl]-7-ethoxy-8-trifluoromethyl-1,3-dihydro-benzo[b][1,4]diazepin-2-one] | 202 °C |
| Cc1cc2c(cc1C(F)(F)F)NC(=O)CC(c1cccc(-c3ccnc(C4CCCC4)c3)c1)=N2 [Example 351, 4-[3-(2-Cyclopentyl-pyridin-4-yl)-phenyl]-7-methyl-8-trifluoromethyl-1,3-dihydro-benzo[b][1,4]diazepin-2-one] | 218 to 219 °C |
| Cc1cc(-c2cccc(C3=Nc4cc(Cl)c(C(F)(F)F)cc4NC(=O)C3)c2)c(C)cn1 [Example 136, 7-Chloro-4-[3-(2,5-dimethyl-pyridin-4-yl)-phenyl]-8-trifluoromethyl-1,3-dihydro benzo[b][1,4]diazepin-2-one] | 214 °C |
| Cc1cc(C2CC2)ncc1-c1cccc(C2=Nc3ccc(C(F)(F)F)cc3NC(=O)C2)c1 [Example 344, 4-[3-(6-Cyclopropyl-4-methyl-pyridin-3-yl)-phenyl]-8-trifluoromethyl-1,3-dihydro-benzo[b][1,4]diazepin-2-one] | 119 °C |
| O=C1CC(c2cccc(-c3cnccn3)c2)=Nc2ccc(C(F)(F)F)cc2N1 [Example 89, 4-(3-Pyrazin-2-yl-phenyl)-8-trifluoromethyl-1,3-dihydro-benzo[b][1,4]diazepin-2-one] | 223 °C |
| Cc1cc2c(cc1Cl)NC(=O)CC(c1cccc(-c3ccccn3)c1)=N2 [Example 45, 8-Chloro-7-methyl-4-(3-pyridin-2-yl-phenyl)-1,3-dihydro-benzo[b][1,4]diazepin-2-one] | 222 °C (dec.) |
| CCCN(C)c1cc2c(cc1C(F)(F)F)NC(=O)CC(c1cccc(-c3ccnc(CO)c3)c1)=N2 [Example 369, 4-[3-(2-Hydroxymethyl-pyridin-4-yl)-phenyl]-7-(methyl-propyl-amino)-8-trifluoromethyl-1,3-dihydro-benzo[b][1,4]diazepin-2-one] | 97 °C |
| O=C1CC(c2cccc(-c3cccnc3)c2)=Nc2ccc(C#Cc3ccc(F)cc3)cc2N1 [Example 174, 8-(4-Fluoro-phenylethynyl)-4-(3-pyridin-3-yl-phenyl)-1,3-dihydro-benzo[b][1,4]diazepin-2-one] | 228 to 230 °C |
| O=C1CC(c2cccc(-c3ccnc(N4CCCC4)c3)c2)=Nc2ccc(C(F)(F)F)cc2N1 [Example 388, 4-[3-(2-Pyrrolidin-1-yl-pyridin-4-yl)-phenyl]-8-trifluoromethyl-1,3-dihydro-benzo[b][1,4]diazepin-2-one] | 224 °C |
| Cc1cc(-c2cc(C3=Nc4cc(C)c(Cl)cc4NC(=O)C3)ccn2)ccn1 [Example 295, 8-Chloro-7-methyl-4-(2′-methyl-[2,4′]bipyridinyl-4-yl)-1,3-dihydro-benzo[b][1,4]diazepin-2-one] | 225 to 227 °C |
| O=C1CC(c2cccc(-c3ccncn3)c2)=Nc2cc(Cl)c(Cl)cc2N1 [Example 300, 7,8-Dichloro-4-(3-pyrimidin-4-yl-phenyl)-1,3-dihydro-benzo[b][1,4]diazepin-2-one] | 234 to 237 °C |
| Cc1cc(-c2cccc(C3=Nc4cc(OCC(F)(F)F)c(C(F)(F)F)cc4NC(=O)C3)c2)cc(C2CC2)n1 [Example 259, 4-[3-(2-Cyclopropyl-6-methyl-pyridin-4-yl)-phenyl]-7-(2,2,2-trifluoro-ethoxy)-8-trifluoromethyl-1,3-dihydro-benzo[b][1,4]diazepin-2-one] | 200 °C |
| Cc1ncccc1-c1cccc(C2=Nc3ccc(-n4cccc4)cc3NC(=O)C2)c1 [Example 289, 4-[3-(2-Methyl-pyridin-3-yl)-phenyl]-8-pyrrol-1-yl-1,3-dihydro-benzo[b][1,4]diazepin-2-one] | 215 to 216 °C |
| O=C1CC(c2cccc(-c3cnccn3)c2)=Nc2ccc(-c3ccccc3F)cc2N1 [Example 92, 8-(2-Fluoro-phenyl)-4-(3-pyrazin-2-yl-phenyl)-1,3-dihydro-benzo[b][1,4]diazepin-2-one] | 241 °C |
